Laboratory results published in patent US8901036B2, “Combinations of phenylsulfonylurea herbicides and safeners” (Bayer Cropscience AG, priority 1994, dated 2014).

Assays:
ECCG = test: Effect and selectivity in corn: herbicidal effect; type: in vivo, Echinochloa crus-galli; conditions: start of tillering (4 to 5 leaves)
Protocol: (§1) Various crop plants are grown in plastic pots with a diameter of 9 cm in a glasshouse to the stated stage and then treated with the particular herbicide or with a mixture of the herbicide and the safener by the post-emergence method. This entails the herbicide of the formula (A) and the compounds of the formula (B) being applied in the form of aqueous suspensions or emulsions with a water application rate which converts to 300 l/ha. 4 weeks after the treatment, the plants are assessed visually for every type of damage by the applied herbicides, taking particular account of the extent of persistent growth inhibition. The evaluation takes place in percentages (scale from 0 to 100%) compared with untreated controls.

SVFA = test: Effect and selectivity in corn: herbicidal effect; type: in vivo
Protocol: as §1

SOHA = test: Effect and selectivity in corn: herbicidal effect; type: in vivo, Sorghum halepense; conditions: 3 leaves
Protocol: as §1

Corn = test: Effect and selectivity in corn: phytotoxicity; type: in vivo; conditions: corn 4 leaves
Protocol: as §1

APSP = test: Herbicidal activity on grasses, post-emergence; type: in vivo, Apera spica-venti; conditions: no safener, 4-leaf stage
Protocol: as §1

POAN = test: Herbicidal activity on grasses, post-emergence; type: in vivo, Poa annua; conditions: no safener, 4-leaf stage
Protocol: as §1

Barley = test: Phytotoxicity of herbicide/safener combinations in cereals, glasshouse post-emergence; type: in vivo; conditions: no safener, 4 weeks after treatment
Protocol: as §1

Wheat = test: as above; type: in vivo; conditions: no safener, 4 weeks after treatment
Protocol: as §1

ALMY = test: Herbicidal activity on grasses, post-emergence; type: in vivo, Alopecurus myosuroides; conditions: no safener, 4-leaf stage
Protocol: as §1

AVFA = test: Herbicidal activity on grasses, post-emergence; type: in vivo, Avena fatua; conditions: no safener, 4-leaf stage
Protocol: as §1

SMILES | Phytotoxicity or herbicidal effect in % ECCG (ECCG; dose 25 g AS/ha) | Phytotoxicity or herbicidal effect in % ECCG (ECCG; dose 50 g AS/ha) | Phytotoxicity or herbicidal effect in % SOHA (SOHA; dose 25 g AS/ha) | Phytotoxicity or herbicidal effect in % SOHA (SOHA; dose 50 g AS/ha) | Phytotoxicity or herbicidal effect in % Corn (Corn; dose 25 g AS/ha) | Phytotoxicity or herbicidal effect in % Corn (Corn; dose 50 g AS/ha) | Phytotoxicity or herbicidal effect in % Corn (Corn; dose 100 g AS/ha) | % effect on APSP (APSP; dose A 6 g AS/ha) | % effect on APSP (APSP; dose A 12 g AS/ha) | % effect on APSP (APSP; dose A 25 g AS/ha) | % effect on POAN (POAN; dose A 6 g AS/ha) | % effect on POAN (POAN; dose A 12 g AS/ha) | % effect on POAN (POAN; dose A 25 g AS/ha) | Phytotoxicity Barley (Barley; dose A 6 g AS/ha) | Phytotoxicity Barley (Barley; dose A 12 g AS/ha) | Phytotoxicity Barley (Barley; dose A 25 g AS/ha) | Phytotoxicity Wheat (Wheat; dose A 6 g AS/ha) | Phytotoxicity Wheat (Wheat; dose A 12 g AS/ha) | Phytotoxicity Wheat (Wheat; dose A 25 g AS/ha) | % effect on ALMY (ALMY; dose A 6 g AS/ha) | other results
COC(=O)Nc1ccc(C(=O)N(C)C)c(S(=O)(=O)NC(=O)Nc2nc(OC)cc(OC)n2)c1.[Na] [A7, N-(4,6-Dimethoxypyrimidin-2-ylaminocarbonyl)-2-(N,N-dimethylaminocarbonyl)-5-(N-methoxycarbonylamino)benzenesulfonamide sodium salt] | 60% | 80% | 90% | 90% | 25% | 40% | 60% |  |  |  |  |  |  |  |  |  |  |  |  |  | Phytotoxicity or herbicidal effect in % ECCG (ECCG; dose 100 g AS/ha): 90%; Phytotoxicity or herbicidal effect in % SVFA (SVFA; dose 25 g AS/ha): 100%; Phytotoxicity or herbicidal effect in % SVFA (SVFA; dose 50 g AS/ha): 100%; Phytotoxicity or herbicidal effect in % SVFA (SVFA; dose 100 g AS/ha): 100%; Phytotoxicity or herbicidal effect in % SOHA (SOHA; dose 100 g AS/ha): 95%
COc1cc(OC)nc(NC(=O)NS(=O)(=O)c2cc(NC=O)ccc2C(=O)N(C)C)n1 [A8, N-(4,6-Dimethoxypyrimidin-2-ylaminocarbonyl)-2-(N,N-dimethylaminocarbonyl)-5-(N-formylamino)benzenesulfonamide] |  |  |  |  |  |  |  |  |  |  |  |  |  |  |  |  |  |  |  |  | Phytotoxicity or herbicidal effect in % ECCG (ECCG; dose 25 + 12 g AS/ha): 98%; Phytotoxicity or herbicidal effect in % ECCG (ECCG; dose 50 + 25 g AS/ha): 100%; Phytotoxicity or herbicidal effect in % SVFA (SVFA; dose 25 + 12 g AS/ha): 95%; Phytotoxicity or herbicidal effect in % SVFA (SVFA; dose 50 + 25 g AS/ha): 100%; Phytotoxicity or herbicidal effect in % SOHA (SOHA; dose 25 + 12 g AS/ha): 95%; Phytotoxicity or herbicidal effect in % SOHA (SOHA; dose 50 + 25 g AS/ha): 98%
CCC(=O)Nc1ccc(C(=O)N(C)C)c(S(=O)(=O)NC(=O)Nc2nc(OC)cc(OC)n2)c1.[Na] [A9, N-(4,6-Dimethoxypyrimidin-2-ylaminocarbonyl)-2-(N,N-dimethylaminocarbonyl)-5-(N-propionylamino)benzenesulfonamide sodium salt] | 99% | 100% | 98% | 100% | 0% | 15% | 35% |  |  |  |  |  |  |  |  |  |  |  |  |  | 
COC(=O)c1ccc(CNS(C)(=O)=O)cc1S(=O)(=O)NC(=O)Nc1nc(OC)cc(OC)n1.[Na] [A10] |  |  |  |  |  |  |  | 80% | 97% | 99% | 85% | 99% | 100% | 5% | 15% | 55% | 15% | 25% | 30% | 98% | % effect on ALMY (ALMY; dose A 12 g AS/ha): 100%; % effect on ALMY (ALMY; dose A 25 g AS/ha): 100%; % effect on AVFA (AVFA; dose A 6 g AS/ha): 75%; % effect on AVFA (AVFA; dose A 12 g AS/ha): 85%; % effect on AVFA (AVFA; dose A 25 g AS/ha): 90%
COC(=O)NCc1ccc(C(=O)OC)c(S(=O)(=O)NC(=O)Nc2nc(OC)cc(OC)n2)c1.[Na] [A11] |  |  |  |  |  |  |  | 85% | 95% | 100% | 90% | 100% | 100% | 10% | 25% | 45% | 5% | 20% | 45% | 95% | % effect on ALMY (ALMY; dose A 12 g AS/ha): 98%; % effect on ALMY (ALMY; dose A 25 g AS/ha): 100%; % effect on AVFA (AVFA; dose A 6 g AS/ha): 70%; % effect on AVFA (AVFA; dose A 12 g AS/ha): 90%; % effect on AVFA (AVFA; dose A 25 g AS/ha): 95%
COC(=O)c1ccc(CN(C)S(C)(=O)=O)cc1S(=O)(=O)NC(=O)Nc1nc(OC)cc(OC)n1 [A12] |  |  |  |  |  |  |  | 85% | 95% | 98% | 85% | 92% | 99% | 8% | 15% | 25% | 5% | 10% | 10% | 95% | % effect on ALMY (ALMY; dose A 12 g AS/ha): 98%; % effect on ALMY (ALMY; dose A 25 g AS/ha): 99%; % effect on AVFA (AVFA; dose A 6 g AS/ha): 75%; % effect on AVFA (AVFA; dose A 12 g AS/ha): 85%; % effect on AVFA (AVFA; dose A 25 g AS/ha): 90%
COC(=O)Nc1ccc(C(=O)N(C)C)c(S(=O)(=O)NC(=O)Nc2nc(OC)cc(OC)n2)c1 [A13, N-(4,6-Dimethoxypyrimidin-2-ylaminocarbonyl)-2-(N,N-dimethylaminocarbonyl)-5-(N-methoxycarbonylamino)benzenesulfonamide] | 99% | 100% | 90% | 97% | 10% | 20% | 30% |  |  |  |  |  |  |  |  |  |  |  |  |  | Phytotoxicity or herbicidal effect in % SVFA (SVFA; dose 25 g AS/ha): 90%; Phytotoxicity or herbicidal effect in % SVFA (SVFA; dose 50 g AS/ha): 95%
